# From patent US11578079B2, “SUMO inhibitor compounds and uses thereof” (CITY OF HOPE, priority 2018, dated 2023)
# What was measured:
# SUMO = biological target: T1, SUMO (Homo sapiens, UniProt Q9UBT2); assay: SUMO activity (Table I, biological activities); assay type: biochemical; design: key: + (less active); ++ (active); +++ (most active)
# T1 sequence (Q9UBT2 1-640): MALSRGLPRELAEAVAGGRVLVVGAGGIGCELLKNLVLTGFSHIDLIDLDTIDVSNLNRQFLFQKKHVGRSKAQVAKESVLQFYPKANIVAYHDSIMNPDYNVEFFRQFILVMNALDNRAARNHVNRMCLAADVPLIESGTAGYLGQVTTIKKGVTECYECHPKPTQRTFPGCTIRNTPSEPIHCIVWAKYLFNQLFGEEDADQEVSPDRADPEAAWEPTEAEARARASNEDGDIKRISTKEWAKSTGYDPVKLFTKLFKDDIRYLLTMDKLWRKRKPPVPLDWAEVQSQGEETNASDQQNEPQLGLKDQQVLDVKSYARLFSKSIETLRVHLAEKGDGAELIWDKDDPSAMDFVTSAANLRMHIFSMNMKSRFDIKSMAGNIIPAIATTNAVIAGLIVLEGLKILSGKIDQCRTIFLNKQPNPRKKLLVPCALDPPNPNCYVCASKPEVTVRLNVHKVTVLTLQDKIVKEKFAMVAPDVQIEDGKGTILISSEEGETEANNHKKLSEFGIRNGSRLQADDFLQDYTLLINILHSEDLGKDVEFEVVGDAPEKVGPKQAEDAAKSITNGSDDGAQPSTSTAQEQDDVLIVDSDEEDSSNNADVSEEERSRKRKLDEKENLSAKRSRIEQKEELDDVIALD
# T1 sequence (Q9UBE0 1-346 partner): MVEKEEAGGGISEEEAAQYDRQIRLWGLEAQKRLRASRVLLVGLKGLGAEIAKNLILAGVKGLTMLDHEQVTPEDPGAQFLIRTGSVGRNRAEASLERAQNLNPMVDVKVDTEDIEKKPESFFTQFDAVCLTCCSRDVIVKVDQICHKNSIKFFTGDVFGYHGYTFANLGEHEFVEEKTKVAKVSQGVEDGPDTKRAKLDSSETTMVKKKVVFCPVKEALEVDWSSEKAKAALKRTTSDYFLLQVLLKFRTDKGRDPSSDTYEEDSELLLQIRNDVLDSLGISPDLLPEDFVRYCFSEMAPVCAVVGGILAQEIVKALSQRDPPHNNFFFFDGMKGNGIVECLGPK
# c-Myc = c-Myc activity (Table I, biological activities); design: key: + (less active); ++ (active); +++ (most active)
SMILES,SUMO (SUMO),c-Myc (c-Myc)
CCN(CC)CCNC(=O)C1=C(C(=O)OC)C2C=CC1(C(Cc1ccccc1)Nc1cc(F)cc(F)c1)O2 (centres unmarked) [Compound 402],++,+
COC(=O)C1=C(C(=O)NC2CCN(C(=O)c3ccccn3)CC2)C2C=CC1(C(Cc1ccccc1)Nc1ccccc1)O2 (centres unmarked) [Compound 391],++,+
CCN(CC)CCNC(=O)C1=C(C(=O)OC)C2(C(Cc3ccccc3)Nc3ccc(F)cc3)C=CC1O2 (centres unmarked) [Compound 375],++,+
CC(C)(C)OC(=O)C1=C(C(=O)OC(C)(C)C)C2(C(Cc3ccccc3)Nc3ccc(F)cc3F)C=CC1O2 (centres unmarked) [Compound 313],+++,+
COC(=O)C1=C(C(=O)NC2CCN(C(C)=O)CC2)C2C=CC1(C(Cc1ccccc1)Nc1ccccc1)O2 (centres unmarked) [Compound 287],++,++
CCN(CC)CCNC(=O)C1=C(C(=O)OC)C2(C(Cc3ccccc3)Nc3cc(F)cc(F)c3)C=CC1O2 (centres unmarked) [Compound 400],++,++
COC(=O)C1=C(C(=O)Nc2ccc(OC)cc2)C2OC1(C(Cc1ccccc1)Oc1ccccc1)C1OC21 (centres unmarked) [Compound 522],+,+
CCOc1cccc(NC(Cc2ccccc2)C23C=CC(O2)C(C(=O)NCc2ccncc2)=C3C(=O)OC)c1 (centres unmarked) [Compound 254],++,+
COC(=O)C1=C(C(=O)Nc2ccc(CN3CCN(C)CC3)cc2)C2C=CC1(C(Cc1ccccc1)Nc1ccccc1)O2 (centres unmarked) [Compound 504],++,+
COC(=O)C1=C(C(=O)NC2CCN(C(C)C)CC2)C2CCC1(C(Cc1ccccc1)Nc1ccccc1)O2 (centres unmarked) [Compound 366],+,+
CCOC(=O)C1=C(C(=O)NCCN(C)C)C2C=CC1(C(Nc1ccccc1)c1ccc(CN3CCOCC3)cc1)O2 (centres unmarked) [Compound 571],++,+
COC(=O)C1=C(C(=O)NCCN(C)C)C2C=CC1(C(Cc1ccc(Cl)cc1)Nc1cc(F)cc(F)c1)O2 (centres unmarked) [Compound 426],++,++
COC(=O)C1=C(C(=O)NCCN2CCCC2)C2C=CC1(C(Cc1ccccc1)Nc1ccc(F)cc1)O2 (centres unmarked) [Compound 443],+++,++
O=C(C1=CC2(C(Cc3ccccc3)Nc3ccccc3)C=CC1O2)c1ccc(F)cc1 (centres unmarked) [Compound 525],+,+
COC(=O)C1=C(C(=O)Nc2ccc(CN3CCOCC3)cc2)C2C=CC1(C(Cc1ccccc1)Nc1ccccc1)O2 (centres unmarked) [Compound 507],++,+
COC(=O)C1=C(C(=O)OC)C2(C(Cc3ccccc3)Nc3cc(F)cc(F)c3)C=CC1O2 (centres unmarked) [Compound 167],++,+
COC(=O)C1=C(C(=O)Nc2ccc(OC)cc2)C2C=CC1(C(Cc1ccccc1)Nc1cccc(Oc3ccccc3)c1)O2 (centres unmarked) [Compound 321],+++,+
CCOC(=O)C1=C(C(=O)Nc2ccc(CN(C)C)cc2)C2C=CC1(C(Nc1ccccc1)c1ccc(CN3CCOCC3)cc1)O2 (centres unmarked) [Compound 565],+,+
CCN(CC)CCNC(=O)C1=C(C(=O)OC)C2(C(Cc3ccc(C)cc3)Nc3cc(F)cc(F)c3)C=CC1O2 (centres unmarked) [Compound 429],++,++
CCOC(=O)C1=C(C(=O)Nc2ccc(OC)cc2)C2(C)C=CC1(C(Nc1ccccc1)c1ccc(CN3CCOCC3)cc1)O2 (centres unmarked) [Compound 581],+,+
COC(=O)C1=C(C(=O)NNc2ccccc2)C2C=CC1(C(Cc1ccccc1)Nc1cc(F)cc(F)c1)O2 (centres unmarked) [Compound 205],++,++
COC(=O)C1=C(C(=O)NC2CCN(C)C2)C2C=CC1(C(Cc1ccccc1)Nc1cc(F)cc(F)c1)O2 (centres unmarked) [Compound 256],++,+

SMILES,SUMO (SUMO),c-Myc (c-Myc)
COC(=O)C1=C(C(=O)Nc2cccc(OC)c2)C2C=CC1(C(Cc1ccccc1)Nc1ccccc1)O2 (centres unmarked) [Compound 180],+,+
COC(=O)C1=C(C(=O)NCCN(C)C)C2C=CC1(C(Cc1ccccc1)Nc1ccc(F)cc1F)O2 (centres unmarked) [Compound 409],++,++
CCOC(=O)C1=C(C(=O)NC2CCN(C)CC2)C2CCC1(C(Cc1ccccc1)Nc1ccc(F)cc1F)O2 (centres unmarked) [Compound 345],+,+
CNC(=O)C1=C(C(=O)Nc2ccccc2)C2C=CC1(C(Cc1ccccc1)Nc1ccccc1)O2 (centres unmarked) [Compound 305],+,+
COC(=O)C1=C(C(=O)NCc2ccncc2)C2C=CC1(C(Cc1ccccc1)Nc1cc(F)cc(Cl)c1)O2 (centres unmarked) [Compound 216],++,++
CCOC(=O)C1=C(C(=O)Nc2ccccc2F)C2C=CC1(C(Nc1ccccc1)c1ccc(CN3CCOCC3)cc1)O2 (centres unmarked) [Compound 595],++,+
COC(=O)C1=C(C(=O)OC)C2(C(Cc3ccc(C(F)(F)F)cc3)Nc3ccccc3)C=CC1O2 (centres unmarked) [Compound 422],++,+
CCCCC(Nc1ccccc1)C12C=CC(O1)C(C(=O)NC1CCN(C)CC1)=C2C(=O)OC (centres unmarked) [Compound 267],++,++
COC(=O)C1=C(C(=O)NCCN(C)C)C2C=CC1(C(Cc1ccccc1)Nc1cc(F)cc(Cl)c1)O2 (centres unmarked) [Compound 227],+++,+
CC#CC(Nc1ccccc1)C12C=CC(O1)C(C(=O)OC)=C2C(=O)OC (centres unmarked) [Compound 172],++,++
COC(=O)C1=C(C(=O)Nc2ccc(CN3CCCC3)cc2)C2C=CC1(C(Cc1ccccc1)Nc1ccccc1)O2 (centres unmarked) [Compound 508],++,+
COC(=O)C1=C(C(=O)NCCNC(=O)Nc2ccccc2)C2C=CC1(C(Cc1ccccc1)Nc1ccccc1)O2 (centres unmarked) [Compound 395],++,+
COC(=O)C1=C(C(=O)Nc2cccc(F)c2)C2C=CC1(C(Cc1ccccc1)Nc1ccccc1)O2 (centres unmarked) [Compound 276],++,+
COC(=O)C1=C(C(N)=O)C2C=CC1(C(Cc1ccccc1)Nc1cccc(Oc3ccccc3)c1)O2 (centres unmarked) [Compound 319],+++,+
COC(=O)C1=C(C(=O)NC2CCN(S(=O)(=O)c3ccccc3)CC2)C2C=CC1(C(Cc1ccccc1)Nc1ccccc1)O2 (centres unmarked) [Compound 358],+,+
COC(=O)C1=C(C(=O)Nc2ccc(OC)cc2)C2C=CC1(C(Nc1ccccc1)C1CCC1)O2 (centres unmarked) [Compound 178],++,+
COC(=O)C1=C(C(=O)NCCN(C)C)C2C=CC1(C(Cc1ccccc1)Oc1ccccc1)O2 (centres unmarked) [Compound 438],++,++
COC(=O)C1=C(C(=O)Nc2ccc(N3CCN(C)CC3)cc2)C2CCC1(C(Cc1ccccc1)Nc1ccccc1)O2 (centres unmarked) [Compound 371],+,+
COC(=O)C1=C(C(=O)NCCN(C)C)C2C=CC1(C(Cc1ccccc1F)Nc1cc(F)cc(F)c1)O2 (centres unmarked) [Compound 455],++,++
CCN(CC)CCNC(=O)C1=C(C(=O)OC)C2(C(Cc3ccc(C(F)(F)F)cc3)Nc3ccccc3)C=CC1O2 (centres unmarked) [Compound 424],++,++
CCN(CC)CCNC(=O)C1=C(C(=O)OC)C2(C(Cc3ccccc3)Nc3ccc(F)cc3F)C=CC1O2 (centres unmarked) [Compound 412],++,+
